Assay results from patent US20240376084A1, “INHIBITORS OF ALPHA-HEMOLYSIN OF STAPHYLOCOCCUS AUREUS” (Helmholtz-Zentrum Fur Infektionsforschung GmbH, priority 2021, published 2024).

Legend:
[1] = biological target: S. aureus Alpha hemolysin (Staphylococcus aureus, UniProt P09616); assay: cell-based; conditions: A549-LDH Assay activity
[2] = biological target: hemolysin alpha from Staphylococcus aureus (Staphylococcus aureus, UniProt P09616); assay: cell-based
Sequence of hemolysin alpha from Staphylococcus aureus (P09616 27-319 limits assumed): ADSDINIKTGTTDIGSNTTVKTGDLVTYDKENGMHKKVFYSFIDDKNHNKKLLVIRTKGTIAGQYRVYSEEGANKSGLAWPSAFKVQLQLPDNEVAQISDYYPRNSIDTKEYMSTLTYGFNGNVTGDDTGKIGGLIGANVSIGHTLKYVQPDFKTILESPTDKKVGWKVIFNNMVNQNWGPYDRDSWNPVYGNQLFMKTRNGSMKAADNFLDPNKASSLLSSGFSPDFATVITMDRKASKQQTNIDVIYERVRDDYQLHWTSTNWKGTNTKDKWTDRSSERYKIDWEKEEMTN

Sequence of S. aureus Alpha hemolysin (P09616 27-319 limits assumed): as above

## Cc1cc2[nH]c(=O)c(=O)[nH]c2cc1S(=O)(=O)Nc1cc(C)c(-c2ccccc2Cl)c(C)c1 [Compound 104, N-(2′-chloro-2,6-dimethyl-[1,1′-biphenyl]-4-yl)-7-methyl-2,3-dioxo-1,2,3,4-tetrahydroquinoxaline-6-sulfonamide]
[1]
  EC50: 0.1 to 1 µM
[2]
  IC50: 0.1 to 1 µM

## Cc1cc(NS(=O)(=O)c2cc3[nH]c(=O)c(=O)[nH]c3cc2F)ccc1-c1ccoc1 [Compound 168, 7-fluoro-N-(4-(furan-3-yl)-3-methylphenyl)-2,3-dioxo-1,2,3,4-tetrahydroquinoxaline-6-sulfonamide]
[1]
  EC50: 1 to 6 µM
[2]
  IC50: 0.1 to 1 µM

## Cc1cc2[nH]c(=O)c(=O)[nH]c2cc1S(=O)(=O)Nc1ccc(-c2ccc(OC(C)C)nc2)c(Cl)c1 [Compound 291, N-[3-chloro-4-(6-isopropoxy-3-pyridyl)phenyl]-7-methyl-2,3-dioxo-1,4-dihydroquinoxaline-6-sulfonamide]
[1]
  EC50: 0.1 to 1 µM
[2]
  EC50: 0.1 to 1 µM
